# Reference: patent US20040038965A1, “Protease inhibitors” (priority 2003, published 2004)
# Tests used:
# human Cathepsin L = human Cathepsin L (Homo sapiens, UniProt P07711); assay: Cathepsin L inhibition, progress curve method; format: biochemical
# Procedure: (§1) Potential inhibitors were evaluated using the progress curve method. Assays were carried out in the presence of variable concentrations of test compound. Reactions were initiated by addition of enzyme to buffered solutions of inhibitor and substrate. Data analysis was conducted according to one of two procedures depending on the appearance of the progress curves in the presence of inhibitors. For those-compounds whose progress curves were linear, apparent inhibition constants (Ki,app) were calculated according to equation 1 (Brandt et al., Biochemitsry, 1989, 28, 140):
# (§2) v=VmA/[Ka(1+1/Ki, app)+A] (1)
# (§3) where v is the velocity of the reaction with maximal velocity Vm, A is the concentration of substrate with Michaelis constant of Ka, and I is the concentration of inhibitor.
# human Cathepsin B = human Cathepsin B (Homo sapiens, UniProt P07858); assay: Cathepsin B inhibition, progress curve method; format: biochemical
# Procedure: as §1, §2, §3
# human Cathepsin K = target: T1, human Cathepsin K (Homo sapiens, UniProt P43235); assay: Cathepsin K inhibition, fluorogenic peptide substrate, progress curve method; format: biochemical; conditions: human recombinant enzyme, pH 5.5
# T1 sequence (P43235 115-329): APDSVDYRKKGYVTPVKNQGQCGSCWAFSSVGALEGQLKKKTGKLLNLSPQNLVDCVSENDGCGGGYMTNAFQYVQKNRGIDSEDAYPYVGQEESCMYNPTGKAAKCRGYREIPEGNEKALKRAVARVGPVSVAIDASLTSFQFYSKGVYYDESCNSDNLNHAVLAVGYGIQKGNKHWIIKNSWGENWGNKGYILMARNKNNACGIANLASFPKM
# Procedure: Determination of Cathepsin K Proteolytic Catalytic Activity
# All assays for cathepsin K were carried out with human recombinant enzyme. Standard assay conditions for the determination of kinetic constants used a fluorogenic peptide substrate, typically Cbz-Phe-Arg-AMC, and were determined in […] Na acetate at pH 5.5 containing 20 mM cysteine and 5 mM EDTA. Stock substrate solutions were prepared at concentrations of 10 or 20 mM in DMSO with 20 uM final substrate concentration in the assays. All assays contained 10% DMSO. […] All assays were conducted at ambient temperature. Product fluorescence (excitation at 360 nm; emission at 460 nm) was monitored with a Perceptive Biosystems Cytofluor II fluorescent plate reader. Product progress curves were generated over 20 to 30 minutes following formation of AMC product.
# as §1, with “140): […]” for “140):”
# v=VmA/[Ka(1+[…])+A] (1) where v is the velocity of the reaction with maximal velocity Vm, A is the concentration of substrate with Michaelis constant of Ka, and I is the concentration of inhibitor.
# [AMC]=vsst+(v0−vss)[1−exp(−kobst)]]/kobs (2) where [AMC] is the concentration of product formed over time t, v0 is the initial reaction velocity and vss is the final steady state rate. Values for kobs were then analyzed as a linear function of inhibitor concentration to generate an apparent second order rate constant (kobs/inhibitor concentration or kobs/[I]) describing the time-dependent inhibition. A complete discussion of this kinetic treatment has been fully described (Morrison et al., Adv. Enzymol. Relat. Areas Mol. Biol., 1988, 61, 201).
# human Cathepsin S = human Cathepsin S (Homo sapiens, UniProt P25774); assay: Cathepsin S inhibition, progress curve method; format: biochemical
# Procedure: as §1, §2, §3
# bone resorption [1] = conditions: rats on calcium deficient diets, serum calcium; cited from earlier work
# bone resorption [2] = conditions: mouse bone organ culture; cited from earlier work
# [3] = test system: PTH stimulated bone resorption; conditions: mouse calvariae; cited from earlier work
# human Cathepsin S, sequence (P25774 115-331): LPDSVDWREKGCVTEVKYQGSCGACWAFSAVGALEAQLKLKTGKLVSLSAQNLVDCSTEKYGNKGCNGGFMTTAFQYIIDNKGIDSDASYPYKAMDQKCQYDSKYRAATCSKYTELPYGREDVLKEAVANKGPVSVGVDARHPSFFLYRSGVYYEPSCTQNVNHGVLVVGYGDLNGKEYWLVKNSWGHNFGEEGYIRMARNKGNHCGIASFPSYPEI
# human Cathepsin L, sequence (P07711 114-333): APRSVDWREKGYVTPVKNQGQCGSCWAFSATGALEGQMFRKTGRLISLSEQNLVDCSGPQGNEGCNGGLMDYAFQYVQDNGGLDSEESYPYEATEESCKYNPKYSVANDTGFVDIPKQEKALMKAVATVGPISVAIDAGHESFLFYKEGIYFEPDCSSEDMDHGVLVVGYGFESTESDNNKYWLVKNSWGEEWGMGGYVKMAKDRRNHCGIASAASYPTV
Compound,Ki (human Cathepsin L),Ki (human Cathepsin B),Ki (human Cathepsin K),Ki (human Cathepsin S),also measured
"O=C(NC1(C(=O)N[C@@H]2CCCN(S(=O)(=O)c3ccccn3)CC2=O)CCCCC1)c1cc2ccccc2o1 [Example 1 (R), Benzofuran-2-carboxylic acid {1-[(R)-3-oxo-1-(pyridine-2-sulfonyl)-azepan-4-ylcarbamoyl]-cyclohexyl}-amide]",–,–,> 26 nM,–,–
"CC(C)C[C@H](NC(=O)[C@H]1O[C@@H]1C(=O)O)C(=O)NCCCCN=C(N)N [Example E-64, E-64]",–,–,–,–,prevention of bone resorption in vivo (bone resorption [1]): effective at preventing bone resorption in vivo
C[C@H](NC(=O)[C@H](Cc1ccccc1)NC(=O)OCc1ccccc1)C(=O)C=[N+]=[N-] [Z-Phe-Ala-CHN2],–,–,–,–,prevention of bone resorption (bone resorption [2]): prevent bone resorption
CC(=O)N[C@@H](CC(C)C)C(=O)N[C@@H](CC(C)C)C(=O)N[C@H](C=O)CCCNC(=N)N [leupeptin],–,–,–,–,prevention of bone resorption in vivo (bone resorption [1]): effective at preventing bone resorption in vivo; prevention of bone resorption (bone resorption [2]): prevent bone resorption
cystatin,–,–,–,–,inhibition of PTH stimulated bone resorption [3]: inhibits PTH stimulated bone resorption

# The next lines start with results.
Ki (human Cathepsin L),Ki (human Cathepsin B),Ki (human Cathepsin K),Ki (human Cathepsin S),Compound,also measured
270 nM,434 nM,0.58 nM,632 nM,"O=C(NC1(C(=O)N[C@H]2CCCN(S(=O)(=O)c3ccccn3)CC2=O)CCCCC1)c1cc2sccc2s1 (racemic) [Example 2, Thieno[3,2-b]thiophene-2-carboxylic Acid {1-[(+/−)-3-oxo-1-(pyridine-2-sulfonyl)-azepan-4-ylcarbamorl]-cyclohexyl}-amide]",–
239 nM,926 nM,1.4 nM,390 nM,"O=C(NC1(C(=O)N[C@H]2CCCN(S(=O)(=O)c3ccccn3)CC2=O)CCCCC1)c1cc2ccccc2o1 [Example 1, Benzofaran-2-carboxylic Acid {1-[(S)-3-oxo-1-(pyridine-2-sulfonel)-azepan-4-ylcarbamoyl]-cyclohexyl}-amide]",–
69 nM,173 nM,0.3 nM,175 nM,"C[C@@H]1CC[C@H](NC(=O)C2(NC(=O)c3cc4sccc4s3)CCCCC2)C(=O)CN1S(=O)(=O)c1ccccn1 [Example 5, Thieno[3,2-b]thiophene-2-carboxylic Acid {1-[(4S,7R)-7-methyl-3-oxo-1-(pyridine-2-sulfonyl)-azepan-4-ylcarbamoyl]-cyclohexyl}-amide]",–
